Consider eleven molecules from ChEMBL document CHEMBL1201862, “PubChem BioAssay data set” (2004).

The structures appear in SMILES notation.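 Assay format: 96-well plates, 48-hour exposure. Here, GI50 denotes the concentration required for 50% inhibition of growth.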 Calls of active or inactive are those of the source. No stated cut-off is given here; in the data, active = GI50 up to about 1.1 µM and inactive = higher. Some results are limits rather than exact numbers.

Among the test systems are 786-0; CCRF-CEM; COLO 205; HCT-15; HOP-92; HT-29; LOX IMVI; MDA-MB-435; Malme-3M; NCI/ADR-RES; OVCAR-5; RXF 393; SF-295; SK-MEL-2; SN12C; SNB-19; UACC-257; UACC-62; SK-MEL-5; OVCAR-8.
Common to all, as to assay: NCI anticancer screen, dose series, 48 h

On to `N/C(S)=N/N=C/c1ncccc1O`, for which the GI50 in the assay with 786-0 was 1.16 µM (inactive); in the assay with CCRF-CEM it was 0.475 µM (active); in the assay on COLO 205 it was 2.83 µM (inactive); in the assay on HCT-15, 1.5 µM; in the assay on HOP-92, 0.52 µM (active); with HT-29 it was 3.56 µM (inactive). For the same molecule, the GI50 in the assay on LOX IMVI was 0.925 µM (active); in the assay with MDA-MB-435, 3.81 µM (inactive); with Malme-3M it was 1.95 µM (inactive); in the assay with NCI/ADR-RES it was 0.757 µM (active); with OVCAR-5, 3.1 µM (inactive); in the assay with RXF 393, 0.843 µM (active). Also, the GI50 in the assay with SF-295 is 0.766 µM (active); in the assay on SK-MEL-2, 6.84 µM (inactive); in the assay with SN12C, 0.964 µM (active); in the assay with SNB-19 it was 2.65 µM (inactive); in the assay with UACC-257, 2.49 µM (inactive); in the assay with UACC-62 it was 0.482 µM (active).

Regarding `CO[C@@H]1[C@H](O)CC[C@]2(CO2)[C@H]1[C@@]1(C)O[C@@H]1CC=C(C)C`, the GI50 in the assay on 786-0 is > 200 µM (inactive); with CCRF-CEM, > 200 µM (inactive); in the assay on COLO 205 it was 152 µM (inactive); in the assay with HCT-15 it was 46.1 µM; with HOP-92 it was > 200 µM (inactive); in the assay with HT-29, > 200 µM (inactive). For the same molecule, the GI50 was 32.7 µM (inactive) in the assay on LOX IMVI; 95.5 µM (inactive) in the assay on MDA-MB-435; 81.8 µM (inactive) with Malme-3M; > 200 µM (inactive) with NCI/ADR-RES; > 200 µM (inactive) with OVCAR-5; > 200 µM (inactive) with RXF 393. For the same molecule, the GI50 with SF-295 was 11 µM (inactive); in the assay on SK-MEL-2, > 200 µM (inactive); in the assay on SK-MEL-5 it was > 200 µM (inactive); in the assay with SN12C it was 25 µM (inactive); with SNB-19 it was 79.1 µM (inactive); in the assay with UACC-62, 54.3 µM (inactive).

For the molecule `O=C1CCCCCC1CC(Sc1ccccc1)Sc1ccccc1` (stereo unspecified), the GI50 is > 100 µM (inactive) with 786-0; 25.2 µM (inactive) in the assay on CCRF-CEM; 61.4 µM (inactive) in the assay on COLO 205; greater than 100 µM in the assay on HCT-15; > 100 µM (inactive) in the assay on HOP-92; > 100 µM (inactive) with HT-29. Further, the GI50 in the assay on LOX IMVI, in the assay on MDA-MB-435, in the assay with Malme-3M, in the assay on NCI/ADR-RES, in the assay with OVCAR-5 and with OVCAR-8 was > 100 µM (inactive) throughout. For the same molecule, the GI50 in the assay on RXF 393 is > 100 µM (inactive); in the assay on SF-295 it was > 100 µM (inactive); in the assay with SK-MEL-2, > 100 µM (inactive); in the assay with SK-MEL-5, 52.5 µM (inactive); in the assay with SNB-19, > 100 µM (inactive); in the assay with UACC-257, 59.8 µM (inactive). The GI50 in the assay on UACC-62 is 81.8 µM (inactive).

As to `Nc1ccc2c(O)cc(O)nc2n1`, the GI50 was > 100 µM (inactive) in the assay on 786-0; > 100 µM (inactive) in the assay on COLO 205; greater than 100 µM in the assay with HCT-15; > 100 µM (inactive) in the assay on HOP-92; > 100 µM (inactive) in the assay with HT-29; > 100 µM (inactive) with MDA-MB-435. The GI50 in the assay with Malme-3M is 37.8 µM (inactive); with NCI/ADR-RES, > 100 µM (inactive); with OVCAR-5, > 100 µM (inactive); in the assay with OVCAR-8, > 100 µM (inactive); in the assay with RXF 393 it was > 100 µM (inactive); in the assay with SF-295 it was > 100 µM (inactive). For the same molecule, the GI50 with SK-MEL-2, with SK-MEL-5, with SN12C, with SNB-19, with UACC-257 and in the assay on UACC-62 was > 100 µM (inactive) in each case.

Take `C#CCNC(CCCNC(=N)N)C(=O)O` (stereo unspecified): the GI50 with 786-0 was > 100 µM (inactive); with CCRF-CEM, > 100 µM (inactive); in the assay with COLO 205, > 100 µM (inactive); in the assay with HCT-15, greater than 100 µM; with HOP-92 it was > 100 µM (inactive); in the assay on HT-29, > 100 µM (inactive). Further, the GI50 in the assay on LOX IMVI, in the assay with MDA-MB-435, with Malme-3M, in the assay with NCI/ADR-RES, with OVCAR-5 and in the assay on OVCAR-8 was > 100 µM (inactive) in each case. The GI50 in the assay on RXF 393, in the assay on SF-295, with SK-MEL-2, in the assay with SK-MEL-5, in the assay on SNB-19 and with UACC-257 was > 100 µM (inactive) each time. Also, the GI50 with UACC-62 is > 100 µM (inactive).

As for `COc1ccc(C2SC(=N)Nc3c2c(C)nn3C(=O)c2ccccc2O)cc1OC` (stereo unspecified), the GI50 with 786-0 is 7.1 µM (inactive); in the assay on CCRF-CEM, 4.93 µM (inactive); in the assay on COLO 205, > 10 µM (inactive); with HCT-15 it was 4.78 µM; in the assay with HOP-92 it was 1.08 µM (active); with HT-29 it was > 10 µM (inactive). Also, the GI50 in the assay on LOX IMVI was 4.58 µM (inactive); with MDA-MB-435, 2.81 µM (inactive); with Malme-3M, 6.3 µM (inactive); with NCI/ADR-RES it was 5.52 µM (inactive); in the assay on OVCAR-5 it was > 10 µM (inactive); with RXF 393 it was 3.61 µM (inactive). For the same molecule, the GI50 is 5.69 µM (inactive) in the assay with SF-295; 4.26 µM (inactive) in the assay on SK-MEL-2; 5.98 µM (inactive) in the assay on SN12C; 5.42 µM (inactive) with SNB-19; > 10 µM (inactive) in the assay with UACC-257; 2.64 µM (inactive) in the assay with UACC-62.

With `O=C(O)C1CCCN1Cc1cc2ccccc2c2ccccc12` (stereo unspecified), the GI50 in the assay with 786-0 is > 100 µM (inactive); in the assay with COLO 205, > 100 µM (inactive); in the assay with HCT-15 it was greater than 100 µM; in the assay on HOP-92, > 100 µM (inactive); in the assay on HT-29 it was > 100 µM (inactive); with LOX IMVI, > 100 µM (inactive). The GI50 in the assay with MDA-MB-435, with Malme-3M, in the assay with NCI/ADR-RES, in the assay with OVCAR-5, with OVCAR-8 and in the assay on RXF 393 was > 100 µM (inactive) each time. The GI50 in the assay with SF-295, with SK-MEL-2, in the assay on SK-MEL-5, in the assay on SN12C, in the assay with SNB-19 and with UACC-257 was > 100 µM (inactive) each time. Also, the GI50 in the assay on UACC-62 was > 100 µM (inactive).

For the molecule `O=c1c2cc([N+](=O)[O-])ccc2oc2nc3n(c(=O)c12)CCCS3`, the GI50 in the assay with 786-0 was 66.8 µM (inactive); with CCRF-CEM it was > 100 µM (inactive); with COLO 205 it was > 100 µM (inactive); in the assay with HCT-15, greater than 100 µM; with HOP-92 it was > 100 µM (inactive); in the assay on MDA-MB-435 it was > 100 µM (inactive). The GI50 in the assay with Malme-3M, in the assay with NCI/ADR-RES, in the assay with OVCAR-5, with RXF 393, in the assay with SF-295 and in the assay with SK-MEL-2 was > 100 µM (inactive) throughout. In addition, the GI50 in the assay with SK-MEL-5, with SN12C, in the assay with SNB-19, with UACC-257 and with UACC-62 was > 100 µM (inactive) in each case.

In the case of `O=C(O)[C@H](c1ccccc1)[C@@H](C(=O)O)c1ccccc1`, the GI50 with 786-0 was > 100 µM (inactive); with COLO 205, > 100 µM (inactive); in the assay on HCT-15, greater than 100 µM; in the assay on HOP-92 it was > 100 µM (inactive); in the assay with HT-29 it was > 100 µM (inactive); in the assay with LOX IMVI, > 100 µM (inactive). For the same molecule, the GI50 in the assay with MDA-MB-435, with Malme-3M, with NCI/ADR-RES, in the assay on OVCAR-5, in the assay with OVCAR-8 and with RXF 393 was > 100 µM (inactive) each time. The GI50 with SF-295, in the assay on SK-MEL-2, in the assay with SK-MEL-5, in the assay with SN12C, in the assay with SNB-19 and in the assay with UACC-257 was > 100 µM (inactive) throughout. Also, the GI50 with UACC-62 is > 100 µM (inactive).

On to `Nc1nc(Cl)c(CO)c(NCC2(CO)CC(CCc3ccccc3)C2)n1` (stereo unspecified), for which the GI50 is 31.8 µM (inactive) with 786-0; 16.5 µM (inactive) in the assay on CCRF-CEM; 14.5 µM (inactive) with COLO 205; 20.6 µM in the assay on HCT-15; 24.3 µM (inactive) in the assay with HOP-92; 22.2 µM (inactive) in the assay on HT-29. Also, the GI50 in the assay on LOX IMVI is 12.5 µM (inactive); with MDA-MB-435, 11.5 µM (inactive); in the assay with Malme-3M it was 14.2 µM (inactive); in the assay on NCI/ADR-RES it was 11.5 µM (inactive); in the assay with OVCAR-5 it was 29.2 µM (inactive); in the assay with OVCAR-8, 12.7 µM (inactive). In addition, the GI50 in the assay with RXF 393 was 20.9 µM (inactive); in the assay on SF-295, 10.6 µM (inactive); in the assay on SK-MEL-5, 17.3 µM (inactive); with SN12C it was 31.1 µM (inactive); in the assay with SNB-19, 61.5 µM (inactive); with UACC-257, 11.4 µM (inactive).

On to `COc1cc2c(c(OC)c1OC)-c1ccc(OC)c(=O)cc1[C@@H](NC(=O)c1ccccc1)CC2`, for which the GI50 was 0.0184 µM (active) with 786-0; < 0.01 µM (active) in the assay with CCRF-CEM; < 0.01 µM (active) in the assay on COLO 205; 0.021 µM in the assay on HCT-15; 0.0173 µM (active) in the assay on HOP-92; 0.0114 µM (active) in the assay with HT-29. Besides, the GI50 with LOX IMVI was 0.0142 µM (active); in the assay on MDA-MB-435 it was < 0.01 µM (active); in the assay on Malme-3M, 0.016 µM (active); in the assay with NCI/ADR-RES it was 0.168 µM (active); with OVCAR-5 it was 1.07 µM (active); in the assay with RXF 393, 0.0234 µM (active). Moreover, the GI50 in the assay on SF-295 was 0.0136 µM (active); in the assay on SK-MEL-2 it was 0.012 µM (active); with SK-MEL-5 it was 0.0107 µM (active); with SN12C, 0.0146 µM (active); in the assay on UACC-257, 0.148 µM (active); in the assay with UACC-62, < 0.0113 µM (active).
